Key:
EcTrpRS [1] = molecular target: T1, EcTrpRS (Escherichia coli, UniProt P00954); assay: ITC, one-site model; cocrystal structure; assay type: binding; conditions: PBS, 15 °C
T1 construct: gene trpS; full-length (domains span residues 1-334), C-terminal His6 tag, pET20b(+), E. coli BL21(DE3); homodimer, as purified carries one copurified TrpAMP per dimer

EcTrpRS [2] = molecular target: T1, EcTrpRS; assay: ATP consumption assay (Kinase-Glo), tRNA-dependent; assay type: biochemical
SaTrpRS = molecular target: T2, SaTrpRS (Staphylococcus aureus, UniProt P67593); assay: ITC, one-site model; assay type: binding; conditions: PBS, 15 °C
T2 construct: gene trpS; residues 1-329, expressed and purified similarly to EcTrpRS (His-tagged, E. coli BL21(DE3))

EcTrpRS [3] = molecular target: T1, EcTrpRS; assay: crystal structure, copurified; assay type: binding; conditions: intermediate product in active site of closed subunit; 1.80 Å
EcTrpRS [4] = molecular target: T1, EcTrpRS; assay: ITC, one-site model; assay type: binding

T2 sequence (P67593 whole entry, the tested form may be a part): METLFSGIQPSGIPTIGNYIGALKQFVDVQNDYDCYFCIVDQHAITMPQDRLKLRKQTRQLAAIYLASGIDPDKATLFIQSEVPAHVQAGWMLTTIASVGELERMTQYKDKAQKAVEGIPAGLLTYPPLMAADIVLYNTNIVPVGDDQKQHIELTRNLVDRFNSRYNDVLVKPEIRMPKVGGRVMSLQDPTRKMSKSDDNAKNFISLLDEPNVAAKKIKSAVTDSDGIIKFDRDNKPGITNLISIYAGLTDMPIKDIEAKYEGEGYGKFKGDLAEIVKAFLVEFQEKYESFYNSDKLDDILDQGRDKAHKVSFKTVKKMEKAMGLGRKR

**Q.** What does the source list for NC(=O)c1cccc2cn(-c3ccc([C@@H]4CCCNC4)cc3)nc12 [niraparib]?
**A.** Kd (EcTrpRS [1]; L-Trp site of the open subunit, blocked by high L-Trp): ~ around 20 μM; IC50 (EcTrpRS [2]): 148 µM; Kd (SaTrpRS): ~ around 20 μM

**Q.** For N[C@@H](Cc1c[nH]c2ccccc12)C(=O)O [L-Trp], which Kd (EcTrpRS [1]; measured for open-closed (one TrpAMP bound) and apo open-open enzyme, active site of open subunit) is on record?
**A.** Its Kd is “ITC measurements of L-Trp to ‘open-closed’ asymmetric EcTrpRS and ‘open-open’ apo EcTrpRS showed similar binding”.

**Q.** For Nc1ncnc2c1ncn2[C@@H]1O[C@H](COP(=O)(O)OC(=O)[C@@H](N)Cc2c[nH]c3ccccc23)[C@@H](O)[C@H]1O [TrpAMP], which “crystal structure, copurified” value (EcTrpRS [3]) is on record?
**A.** The value was “A copurified tryptophanyl adenylate (TrpAMP)”.

**Q.** With Nc1ncnc2c1ncn2[C@@H]1O[C@H](COP(=O)(O)OP(=O)(O)OP(=O)(O)O)[C@@H](O)[C@H]1O [ATP] as the compound, how does the Kd (EcTrpRS [4]) read?
**A.** The Kd was 305 ± 49.9 µM.

Source: paper PMC10201369, “An asymmetric structure of bacterial TrpRS supports the half-of-the-sites catalytic mechanism and facilitates antimicrobial screening” (Nucleic Acids Research, 2023)
